The text below walks through data of patent publication US5612341A, “Brominated hexahydroxybiphenyl derivatives” (Biotech Research Laboratories, priority 1995, dated 1997).

Assay [1] concerns HIV-1 (IIIB isolate). The settings on record: background section; cited from earlier work.
The test system of assay [2] is HIV-1 (IIIB isolate). The assay can be described thus: microbe, parasite or virus in culture. Type of assay: cell-based. As to conditions: for Therapeutic Index: 5760 min. The protocol: (§1) The H9 T cell line was maintained in continuous culture with complete medium (RPMI and 10% fetal calf serum) at 5% CO2 and 37° C. and was used in experiments only when in log phase of growth. The cells were incubated with HIV-1 (IIIB isolate, TCID50 10^4 IU/mL, at a multiplicity of infection of 0.1-0.01 IU/cell) for 1 hour at 37° C. and 5% CO2. The cells then were washed thoroughly to remove unabsorbed virions and resuspended at 4×10^5 cells/mL in complete medium. Aliquots (1 mL) were placed in wells of 24-well culture plates containing an equal volume of test compound (diluted in the culture medium). After a four day incubation at 37° C., cell density of uninfected cultures was determined by counting cells in a Coulter counter to assess toxicity of the test compound. A p24 antigen ELISA assay was used to determine the level of virus released in the medium of the HIV-infected cultures. The p24 antigen assay uses an HIV-1 anti-p24 specific monoclonal antibody as the capture antibody coated on 96 well plates. Following a sample incubation period, rabbit serum containing antibodies for HIV-1 p24 is used to tag any p24 "captured" onto the microtiter well surface. […] The cut-off for the p24 ELISA assay is 12.5 pg/mL. P24 in the culture medium was quantitated against a standard curve containing known amounts of p24. The effective (EC50) and inhibitory concentrations (for anti-HIV activity and cytotoxicity, respectively) were determined.

In assay [3] the test system is H9 T cell line. Kind of assay: Toxicity to uninfected H9 cells (cell count). Type of assay: cell-based. The protocol:
as §1

For assay [4], the target named is HIV-1 reverse transcriptase (Human immunodeficiency virus type 1 group M subtype B, UniProt P04585). As to conditions: more with Poly(rC)-olig(dG) than with Poly(rA)-olig(dT); cited from earlier work.

In brackets after ≈: the same amount, converted by molar mass. Where only a bound is given, the exact number is not on record here.

By EC50 is commonly meant the concentration giving half of the maximal effect. Read a high EC50 as weaker potency. The term IC50 denotes the midpoint of a concentration-inhibition curve. High values mean weaker potency in that assay, low ones greater potency in that assay.

With `COC(=O)c1cc(OC)c2c(c1-c1c(C(=O)OC)cc(OC)c3c1OCO3)OCO2` [Compound 3, 4,4'-dimethoxy-5,6,5'6'-dimethylenedioxy-2,2'-dimethoxycarbonyl biphenyl, reference compound], the TI in assay [1] is recorded as > 20. Also, in assay [2] (Human immunodeficiency virus 1, IIIB, Lymphocyte), the EC50 came to 5 µg/mL (≈ 12 µM). In addition, the “Therapeutic Index” value in assay [2] (Table I, IC50/EC50) was > 20; in assay [2] (Table IA, ratio IC50/EC50), > 20. Moreover, the IC50 in assay [3] (Homo sapiens, H9) was > 100 µg/mL; in assay [3] (T-cell) it was > 100 µg/mL.
For the molecule `Cc1ccnc2c1NC(=O)c1cccnc1N2C1CC1` [Nevarapine], in assay [4], the “inhibitory activity using Poly(rC)-olig(dG) versus Poly(rA)-olig(dT)” value is “more inhibitory activity”.
